Assay results taken from BindingDB's records for PubMed 30125723 (n/a, 2018).

Target: alpha-glucosidase (Saccharomyces cerevisiae)
Experiment: Inhibition of Saccharomyces cerevisiae alpha-glucosidase activity using pNPG as substrate

O=C(CO)CCC(=O)c1nc(C(=O)O)cc2c1[nH]c1ccccc12
IC50: 63 nM
